Reference: patent US7989447B2, “1,5 and 3,6-substituted indole compounds having NOS inhibitory activity” (NeurAxon, Inc., priority 2006, dated 2011)

How the values were obtained:
[1] = biological target: human neuronal constitutive NOS (nNOS) (Homo sapiens, UniProt P29475); test: nNOS (Human) enzyme assay, radiometric conversion of [3H]L-arginine to [3H]L-citrulline; assay type: biochemical
Procedure: To measure enzyme inhibition, a 15 μL solution of a test substance was added to the enzyme assay solution, followed by a pre-incubation time of 15 min at RT. […] The total volume of the reaction mixture was 150 μL in every well. The reactions were carried out at 37° C. for 45 min. The reaction was stopped by adding 20 μL of ice-cold buffer containing 100 mM HEPES, 3 mM EGTA, 3 mM EDTA, pH=5.5. [^3H]L-citrulline was separated by DOWEX (ion-exchange resin DOWEX 50 W X 8-400, SIGMA) and the DOWEX was removed by spinning at 12,000 g for 10 min in the centrifuge. […] All assays were performed at least in duplicate. Standard deviations were 10% or less.

[2] = biological target: human inducible NOS (iNOS) (Homo sapiens, UniProt P35228); test: iNOS (Human) enzyme assay, radiometric conversion of [3H]L-arginine to [3H]L-citrulline; assay type: biochemical; settings: recombinant human enzyme, 37° C., 45 min
Procedure: (§1) Recombinant human inducible NOS (iNOS), human endothelial constitutive NOS (eNOS) or human neuronal constitutive NOS(nNOS) were produced in Baculovirus-infected Sf9 cells (ALEXIS). In a radiometric method, NO synthase activity was determined by measuring the conversion of [^3H]L-arginine to [^3H]L-citrulline. To measure iNOS, 10 μL of enzyme was added to 100 μL of 100 mM HEPES, pH=7,4, containing 1 mM CaCl2, 1 mM EDTA, 1 mM dithiotheitol, 1 μM FMN, 1 μM FAD, 10 μM tetrahydrobiopterin, 120 μM NADPH, and 100 nM CaM. To measure eNOS or nNOS, 10 μL of enzyme was added to 100 μL of 40 mM HEPES, pH=7.4, containing 2.4 mM CaCl2, 1 mM MgCl2, 1 mg/mL BSA, 1 mM EDTA, 1 mM dithiothreitol, 1 μM FMN, 1 μM FAD, 10 μM tetrahydrobiopterin, 1 mM NADPH, and 1.2 μM CaM.
(§2) To measure enzyme inhibition, a 15 μL solution of a test substance was added to the enzyme assay solution, followed by a pre-incubation time of 15 min at RT. The reaction was initiated by addition of 20 μL L-arginine containing 0.25 μCi of [^3H]arginine/mL and 24 μM L-arginine. The total volume of the reaction mixture was 150 μL in every well. The reactions were carried out at 37° C. for 45 min. The reaction was stopped by adding 20 μL of ice-cold buffer containing 100 mM HEPES, 3 mM EGTA, 3 mM EDTA, pH=5.5. [^3H]L-citrulline was separated by DOWEX (ion-exchange resin DOWEX 50 W X 8-400, SIGMA) and the DOWEX was removed by spinning at 12,000 g for 10 min in the centrifuge. An 70 μL aliquot of the supernatant was added to 100 μL of scintillation fluid and the samples were counted in a liquid scintillation counter (1450 Microbeta Jet, Wallac). […] All assays were performed at least in duplicate.

[3] = biological target: human endothelial constitutive NOS (eNOS) (Homo sapiens, UniProt P29474); test: eNOS (Human) enzyme assay, radiometric conversion of [3H]L-arginine to [3H]L-citrulline; assay type: biochemical; settings: recombinant human enzyme, 37° C., 45 min; read-out: Human eNOS
Procedure: as §1, §2

[4] = system: rats after L5/L6 spinal nerve ligation; test: Chung Spinal Nerve Ligation (SNL) model of neuropathic pain, thermal hyperalgesia; assay type: in vivo, rat; settings: one dose 10 or 60 mg/kg i.p.
Procedure: The efficacy of compound 107 for the treatment of neuropathic pain was assessed using standard animal models predictive of anti-hyperalgesic and anti-allodynic activity induced by a variety of methods.
The experimental designs for the Chung Spinal Nerve Ligation SNL Model assay for neuropathic pain are depicted in FIG. 1. Nerve ligation injury was performed according to the method described by Kim and Chung (Kim and Chung, Pain 50:355-363, 1992). This technique produces signs of neuropathic dysesthesias, including tactile allodynia, thermal hyperalgesia, and guarding of the affected paw. Rats were anesthetized with halothane and the vertebrae over the L4 to S2 region were exposed. The L5 and L6 spinal nerves were exposed, carefully isolated, and tightly ligated with 4-0 silk suture distal to the DRG. After ensuring homeostatic stability, the wounds were sutured, and the animals allowed to recover in individual cages. Sham-operated rats were prepared in an identical fashion except that the L5/L6 spinal nerves were not ligated. […] After a period of recovery following the surgical intervention, rats show enhanced sensitivity to painful and normally non-painful stimuli.

[5] = system: cardiogenic shock patients; settings: randomized trial of 30 patients; reduced from 67%; cited from earlier work
migraine patients = settings: single i.v. administration; cited from earlier work
[6] = system: patients with persistent shock; settings: up to 30 days, 11 patients with persistent shock; cited from earlier work

Chain of human neuronal constitutive NOS (nNOS) (P29475 whole entry): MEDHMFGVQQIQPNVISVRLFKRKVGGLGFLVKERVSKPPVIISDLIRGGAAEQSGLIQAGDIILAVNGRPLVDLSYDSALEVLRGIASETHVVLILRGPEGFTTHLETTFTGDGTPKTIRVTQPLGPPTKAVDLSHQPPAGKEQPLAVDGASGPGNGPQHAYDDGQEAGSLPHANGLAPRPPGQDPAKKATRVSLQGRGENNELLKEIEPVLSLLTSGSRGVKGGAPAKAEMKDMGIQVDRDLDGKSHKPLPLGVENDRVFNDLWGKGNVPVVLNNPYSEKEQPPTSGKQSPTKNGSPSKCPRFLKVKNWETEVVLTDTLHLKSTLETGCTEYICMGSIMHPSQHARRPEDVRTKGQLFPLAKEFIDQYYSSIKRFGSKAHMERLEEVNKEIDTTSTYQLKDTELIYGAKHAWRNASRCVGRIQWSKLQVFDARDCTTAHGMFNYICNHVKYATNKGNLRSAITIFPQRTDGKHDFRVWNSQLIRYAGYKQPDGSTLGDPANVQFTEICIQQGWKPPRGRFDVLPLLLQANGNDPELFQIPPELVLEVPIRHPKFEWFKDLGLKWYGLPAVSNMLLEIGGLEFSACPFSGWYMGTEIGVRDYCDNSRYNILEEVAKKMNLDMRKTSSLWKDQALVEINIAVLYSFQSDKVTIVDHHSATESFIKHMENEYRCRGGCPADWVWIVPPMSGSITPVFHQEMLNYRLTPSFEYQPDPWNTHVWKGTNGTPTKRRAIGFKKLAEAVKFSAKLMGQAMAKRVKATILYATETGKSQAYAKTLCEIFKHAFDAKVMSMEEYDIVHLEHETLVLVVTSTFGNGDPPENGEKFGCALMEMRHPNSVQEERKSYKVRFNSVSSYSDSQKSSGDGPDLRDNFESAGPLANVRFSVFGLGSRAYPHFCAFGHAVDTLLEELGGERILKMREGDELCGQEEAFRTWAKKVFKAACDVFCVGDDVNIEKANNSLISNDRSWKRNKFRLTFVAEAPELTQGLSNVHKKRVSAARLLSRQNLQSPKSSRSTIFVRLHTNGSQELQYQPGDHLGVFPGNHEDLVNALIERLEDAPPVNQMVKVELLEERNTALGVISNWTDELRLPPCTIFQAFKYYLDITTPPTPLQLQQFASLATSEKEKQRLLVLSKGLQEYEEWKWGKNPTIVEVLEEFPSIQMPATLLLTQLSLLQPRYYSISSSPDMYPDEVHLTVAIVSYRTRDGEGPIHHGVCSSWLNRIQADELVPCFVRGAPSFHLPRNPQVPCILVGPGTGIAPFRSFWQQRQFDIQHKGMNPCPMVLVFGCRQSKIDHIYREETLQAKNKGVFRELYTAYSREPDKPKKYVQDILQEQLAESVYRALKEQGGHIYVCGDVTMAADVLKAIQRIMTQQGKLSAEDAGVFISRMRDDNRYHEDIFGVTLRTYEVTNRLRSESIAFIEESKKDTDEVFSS

## CN1CC=C(c2c[nH]c3cc(NC(=N)c4cccs4)ccc23)CC1 [Compound 107, N-[3-(1-methyl-1,2,3,6-tetrahydro-pyridin-4-yl)-1H-indol-6-yl]-thiophene-2-carboxamidine]
[1]; human eNOS / human nNOS
  Ratio e/n: 26.36
[1]; recombinant human enzyme, 37° C., 45 min, read-out: Human nNOS
  IC50: 1.1 µM
[2]
  IC50: 12 µM
[3]
  IC50: 29 µM
[4]
  antihyperalgesic effect (reversal of thermal hyperalgesia): clear antihyperalgesic effect

## COC(=O)[C@@H](N)CCCNC(=N)N[N+](=O)[O-] [L-NAME]
[5]
  patient mortality: 27%

## CN=C(N)NCCC[C@H](N)C(=O)O.Cl [L-NMMA, L-N^G methylarginine hydrochloride]
Migraine patients
  response rate: 67%
[6]
  survival rate: 72%
